The record followed here is publication PMC1664607 (PLoS Medicine, 2006).

In brackets after ≈: the same amount, converted by molar mass. Like-named read-outs stand apart in the source and are kept apart here. Some results are limits rather than exact numbers.

Data set [1] deals with S. typhimurium TA98. As to the kind of experiment: Bacterial reverse mutation (BRM) test. It is filed as cell-based. The method, then:
(§1) The BRM test was performed in accordance with OECD Guideline 471 using Salmonella tyiphimurium TA98, TA100, TA1535, and TA1537, and Escherichia coli WP2 uvrA [11]. Each bacterial strain was pre-cultured at 37 °C for 18 h using a nutrient broth (Nissui Pharmaceutical; http://www.nissui-pharm.co.jp/index_e.html). After adjustment to 2.4 at OD660 nm, each bacterial suspension was added to a test tube containing the designated compound in the absence or presence of rat liver microsome (S9) mix. After a 20-min incubation at 37 °C, top agar was added to each test tube and the contents were poured into minimum essential medium (Oriental Yeast; http://www.oyc.co.jp/e/index.htm). The number of revertants was counted 48 h after incubation at 37 °C.

The test system of data set [2] is E. coli WP2 uvr A. As to the kind of experiment: Bacterial reverse mutation (BRM) test. The class given is cell-based. The method, then:
as §1

In data set [3] the test system is S. typhimurium TA1537. Briefly: Bacterial reverse mutation (BRM) test. The class given is cell-based. To be noted: S9 mix +; positive control 2AA 2 μg/plate. The method, then: as §1
For data set [4], the system named is S. typhimurium TA1535. As to the kind of experiment: Bacterial reverse mutation (BRM) test. The class given is cell-based. Conditions: S9 mix +; positive control 2AA 2 μg/plate. How it is done:
as §1

The subject of data set [5] is S. typhimurium TA100. As to the kind of experiment: Bacterial reverse mutation (BRM) test. The class given is cell-based. The method, then:
as §1

Data set [6] has as its target T1, CYP2E1 (Homo sapiens, UniProt P05181).
T1 construct: Standard incubation mixtures of 0.5 ml contained microsomal protein (0.1–0.5 mg); from tissue; host or cells: pooled human liver microsomes (ten donors)
As to the kind of experiment: Chlorzoxazone 6-hydroxylation in human liver microsomes. The class given is in vitro ADME. To be noted: 100 μM; 100 μM chlorzoxazone.

The target of data set [7] is T2, CYP2A6 (Homo sapiens, UniProt P11509).
T2 construct: Standard incubation mixtures of 0.5 ml contained microsomal protein (0.1–0.5 mg); from tissue; host or cells: pooled human liver microsomes (ten donors)
T2 sequence (P11509 1-494): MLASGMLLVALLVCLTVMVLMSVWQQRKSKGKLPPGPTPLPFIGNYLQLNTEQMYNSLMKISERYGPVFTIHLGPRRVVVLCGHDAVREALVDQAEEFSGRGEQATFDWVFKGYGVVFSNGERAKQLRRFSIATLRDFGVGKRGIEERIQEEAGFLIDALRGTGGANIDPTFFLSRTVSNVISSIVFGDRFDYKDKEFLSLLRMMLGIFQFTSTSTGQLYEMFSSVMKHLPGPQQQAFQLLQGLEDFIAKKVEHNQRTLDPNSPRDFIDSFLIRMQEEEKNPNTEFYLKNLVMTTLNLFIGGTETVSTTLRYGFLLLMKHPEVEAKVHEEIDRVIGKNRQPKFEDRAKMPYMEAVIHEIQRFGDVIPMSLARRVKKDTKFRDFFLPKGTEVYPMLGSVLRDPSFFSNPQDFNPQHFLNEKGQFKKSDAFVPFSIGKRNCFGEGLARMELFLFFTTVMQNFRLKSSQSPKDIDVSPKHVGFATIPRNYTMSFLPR
Briefly: Coumarin 7-hydroxylation in human liver microsomes. It is filed as in vitro ADME. Conditions: 100 μM; 2 μM coumarin. In general terms: Microsomes from liver hold many membrane-bound enzymes, among them those of drug oxidation.

The nature of data set [8]: Plasma levels in an experimental mouse model of TB. Conditions: in vivo, po.
For data set [9], the system named is mycolic acid synthesis in M. bovis BCG. As to the kind of experiment: microbe, parasite or virus in culture. It is filed as cell-based. To be noted: Mycobacterium tuberculosis variant bovis BCG, BCG.
In data set [10] the test system is M. tuberculosis ATCC 35812 (Kurono). As to the kind of experiment: Susceptibility testing (agar dilution MIC). The class given is cell-based. To be noted: Mycobacterium tuberculosis, ATCC35812, 336 h. In general terms: Agar dilution tests growth on a series of plates holding different concentrations.
For data set [11], the system named is M. tuberculosis ATCC 25618 (H37Rv). As to the kind of experiment: Susceptibility testing (agar dilution MIC). It is filed as cell-based. Conditions: Mycobacterium tuberculosis, 336 h.
For data set [12], the system named is M. tuberculosis ATCC 35837 (H37Rv-E-R). As to the kind of experiment: microbe, parasite or virus in culture. The class given is cell-based. Conditions: Mycobacterium tuberculosis, 336 h.
The test system of data set [13] is M. tuberculosis ATCC 35822 (H37Rv-H-R). As to the kind of experiment: microbe, parasite or virus in culture. The class given is cell-based. Conditions: Mycobacterium tuberculosis, 336 h.
Data set [14] concerns clinically isolated M. tuberculosis. As to the kind of experiment: microbe, parasite or virus in culture. The class given is cell-based. Conditions: Mycobacterium tuberculosis; read-out: MIC90.
Data set [15] concerns M. tuberculosis Kurono. As to the kind of experiment: Therapeutic efficacy in an experimental mouse model of chronic TB. Conditions: for Log of Viable Counts/Lung: 672 h. The class given is in vivo, ICR mice.
Data set [16] deals with M. tuberculosis ATCC 35838 (H37Rv-R-R). Briefly: microbe, parasite or virus in culture. It is filed as cell-based. Conditions: Mycobacterium tuberculosis, 336 h.
In data set [17] the test system is intracellular M. tuberculosis H37Rv in THP-1 cells. Briefly: Activity against intracellular mycobacteria, 4-h pulsed exposure. It is filed as cell-based, M. tuberculosis; human THP-1 cells. To be noted: further 68-h culture.
Data set [18] deals with M. tuberculosis ATCC 35820 (H37Rv-S-R). As to the kind of experiment: microbe, parasite or virus in culture. The class given is cell-based. Conditions: Mycobacterium tuberculosis, 336 h.
In data set [19] the test system is M. tuberculosis. Briefly: Activity of the main metabolite (test not described). To be noted: metabolite produced in the presence of M. tuberculosis.
Where [20] appears, read: S9 mix −, positive control AF-2 0.01 μg/plate.

T1 sequence (P05181 whole entry): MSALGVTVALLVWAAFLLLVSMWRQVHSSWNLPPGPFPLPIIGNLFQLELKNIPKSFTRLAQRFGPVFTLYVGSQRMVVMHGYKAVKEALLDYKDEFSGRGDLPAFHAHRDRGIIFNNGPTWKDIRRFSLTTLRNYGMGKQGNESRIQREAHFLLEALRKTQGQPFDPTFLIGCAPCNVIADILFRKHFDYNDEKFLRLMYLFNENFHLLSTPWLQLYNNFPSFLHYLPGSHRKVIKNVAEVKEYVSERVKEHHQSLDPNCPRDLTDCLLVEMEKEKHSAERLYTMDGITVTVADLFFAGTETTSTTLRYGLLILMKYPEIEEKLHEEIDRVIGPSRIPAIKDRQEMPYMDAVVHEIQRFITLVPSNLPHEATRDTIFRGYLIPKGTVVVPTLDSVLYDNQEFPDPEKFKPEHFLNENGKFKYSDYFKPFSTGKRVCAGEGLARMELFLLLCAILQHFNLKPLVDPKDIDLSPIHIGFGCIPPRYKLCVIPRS

Regarding `Nc1ccc2cc3ccccc3cc2c1` [2AA, 2-aminoanthracene], the Revertants/Plate is listed as 36 92 Revertants/Plate in data set [1] (S9 mix +, positive control 2AA 0.5 μg/plate); 33 1122 Revertants/Plate in [2] (S9 mix +, positive control 2AA 10 μg/plate); 81 238 Revertants/Plate in [3]; 6 188 Revertants/Plate in [4]; 108 1103 Revertants/Plate in data set [5] (S9 mix +, positive control 2AA 1 μg/plate).

For `NC(=O)C(=Cc1ccc([N+](=O)[O-])o1)c1ccco1` [AF-2, 2-(2-furyl)-3-(5-nitro-2-furyl)acrylamide], the Revertants/Plate is on record as 29 473 Revertants/Plate in data set [1] (S9 mix −, positive control AF-2 0.1 μg/plate); 30 225 Revertants/Plate in data set [2] (setting [20]); 98 547 Revertants/Plate in [5] (setting [20]).

As to `CCN(CC)C(=S)S` [Diethyldithiocarbamate, diethyldithiocarbamate], the “Percent of Control” value in data set [6] was 55.0% of Control; in [7], 38.2% of Control.

What is called AUC(0-t) is exposure summed from dosing to a finite time, without extrapolation to infinity. Low values mean low exposure, high ones high exposure. For orientation: Cmax means the highest concentration seen after dosing. What is called Tmax is the time at which the peak concentration occurs. Broadly, the IC50 is the concentration that gives 50% inhibition. Turning to `NNC(=O)c1ccncc1` [INH, isoniazid], the concentration at 0.083 h in [8] stood at 2170 ± 435 ng/mL. In data set [8], this compound came in with a concentration at 0.25 h of 3060 ± 779 ng/mL. In [8], this compound came in with a concentration at 0.5 h of 2280 ± 390 ng/mL. In addition, in data set [8], the concentration at 1 h was found to be 1920 ± 478 ng/mL. In addition, the concentration at 2 h in data set [8] came to 740 ± 202 ng/mL. Besides, the concentration at 4 h in [8] was 253 ± 57 ng/mL. Besides, in [8] (10 mg/kg), the AUC(0-t) is 4550 ng·h/mL. Also, the peak concentration (Cmax) in data set [8] (10 mg/kg) came to 3060 ng/mL. The Tmax in data set [8] (10 mg/kg) amounted to 15 min. The IC50 in [9] (1 h, read-out: IC50, Fatty acid) was above 4 µg/mL; in data set [9] (1 h, read-out: IC50, Keto-mycolic acid), 0.69 µg/mL (≈ 5.03 µM); in [9] (1 h, read-out: IC50, Methoxy-mycolic acid), 0.63 µg/mL (≈ 4.59 µM); in data set [9] (1 h, read-out: IC50, α-Mycolic acid), 1.85 µg/mL (≈ 13.5 µM); in data set [9] (read-out: IC50 values, all mycolic acid subclasses), 0.63 to 1.85 µg/mL (≈ 4.59 to 13.5 µM). The MIC in data set [10] is 0.1 µg/mL (≈ 0.729 µM); in [11], 0.1 µg/mL (≈ 0.729 µM); in data set [12], 0.2 µg/mL (≈ 1.46 µM); in [13], above 100 µg/mL; in data set [16], 0.1 µg/mL (≈ 0.729 µM); in data set [18], 0.1 µg/mL (≈ 0.729 µM). Besides, the MIC90 in [14] was 0.099 µg/mL (≈ 0.722 µM). The “Log of Viable Counts/Lung” value is recorded as 6.702 ± 0.237^c:NS, d:NS in data set [15] (1.25 mg/kg); 5.751 ± 0.358^c:**, d:* in [15] (2.5 mg/kg); 4.944 ± 0.760^c:**, d:** in data set [15] (5 mg/kg); 4.434 ± 0.319^c:**, d:** in [15] (10 mg/kg); 4.595 ± 0.452^c:**, d:** in data set [15] (20 mg/kg). Also, in data set [15] (lung, once daily for 28 d), the “Dose that could produce a CFU reduction of at least 95%” value is listed as 5 mg/kg. The “Dose groups that showed a significant decrease in pulmonary viable bacterial count when compared with the vehicle control group” value in data set [15] (once daily for 28 d) is 2.5, 5, 10, and 20 mg/kg. The “Activity against intracellular M. tuberculosis H37Rv” value in data set [17] was “poor activity”.

Consider `CC1(COc2ccc(N3CCC(Oc4ccc(OC(F)(F)F)cc4)CC3)cc2)Cn2ccnc2O1` (stereo not shown) [desnitro-imidazooxazole], for which the “Activity of the main metabolite” value in data set [19] is on record as “non-active”.
